In patent US20220125898A1, “PAR2 MODULATION AND METHODS THEREOF” (JANSSEN BIOTECH, INC., priority 2019, published 2022):
Residue numbers refer to the chain shown, from its start.

What was measured:
[1] = biological target: PAR2 endogenously expressed in HEK293 cells (human) (UniProt P55085); assay: cell-based or functional assay
[2] = biological target: Human PAR2 wild type, recombinantly expressed in HEK293 cells with par1 and par2 knocked-out (human) (UniProt P55085); assay: cell-based or functional assay
[3] = biological target: PAR2 with the signal peptide deleted (PAR2ΔSP) (human) (UniProt P55085); assay: cell-based or functional assay
[4] = test system: HEK293 cells with par1 and par2 knocked-out; assay: FLIPR characterization of par1 and par2 knock-out HEK293 cells; format: cell-based, human
Description: A PAR1, PAR2 knock-out HEK293 cell line was created by Applied StemCells (Milpitas, Calif.) using a CRISPR/Cas9 approach. Briefly, the coding region (nucleotide 374-643) of PAR1, which encodes the protein region transmembrane region 2 (TM2) to transmembrane region 3 (TM3) of PAR1, was deleted. Similarly, the coding region (281-627) of PAR2, which encodes the protein region TM2 to TM3 of PAR2, was deleted. Single cell clones were isolated. PCR analysis of the genomic DNA followed by DNA sequencing was used to confirm the deletion of the DNA fragments.
FLIPR-Tetra (Molecular Device, San Jose, Calif.) was used to monitor intracellular Ca^2+ mobilization in HEK293 cells, HEK293 cells with PAR1 and PAR2 knocked-out, and cells transiently transfected with various PAR2 expression constructs. Cells were grown in 96-well polyD-lysine coated black FLIPR plates (Corning) in DMEM supplemented with 10% FCS, 1 mM pyruvate, 20 mM HEPES, at 37° C. with 5% CO2. For transient transfection, cells were grown in 96-well polyD-lysine coated black FLIPR plates and transfected using FuGENE HD (Promega, Madison, Wis.) as the transfection reagent according to the manufacturer's instructions. […] Intracellular Ca^2+ mobilization stimulated by various concentrations of ligands (trypsin, or peptide ligand) was monitored by FLIPR-Tetra as described (Liu et al., Mol. Pharmacol. 88:911-25 (2015)). […]

PAR2(R36A) = biological target: T1, PAR2(R36A) (Homo sapiens, UniProt P55085, R36A); assay: FLIPR intracellular Ca2+ mobilization, full length PAR2 with Arg36Ala mutation; format: cell-based
T1 construct: expressed in transfected cells; host or cells: HEK293 cells with par1 and par2 knocked out, transient
T1 sequence (P55085 26-397 R36A): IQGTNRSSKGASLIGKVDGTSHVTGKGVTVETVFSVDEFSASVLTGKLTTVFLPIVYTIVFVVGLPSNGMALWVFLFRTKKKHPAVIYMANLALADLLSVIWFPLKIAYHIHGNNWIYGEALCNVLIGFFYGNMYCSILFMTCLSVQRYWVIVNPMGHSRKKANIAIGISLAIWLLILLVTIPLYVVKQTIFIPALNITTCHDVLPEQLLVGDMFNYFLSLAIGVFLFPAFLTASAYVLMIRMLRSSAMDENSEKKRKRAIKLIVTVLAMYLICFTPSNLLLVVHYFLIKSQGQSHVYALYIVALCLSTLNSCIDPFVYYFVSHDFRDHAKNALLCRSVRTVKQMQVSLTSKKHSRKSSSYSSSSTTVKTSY
Procedure: (§1) FLIPR-Tetra (Molecular Device, San Jose, Calif.) was used to monitor intracellular Ca^2+ mobilization in HEK293 cells, HEK293 cells with PAR1 and PAR2 knocked-out, and cells transiently transfected with various PAR2 expression constructs. Cells were grown in 96-well polyD-lysine coated black FLIPR plates (Corning) in DMEM supplemented with 10% FCS, 1 mM pyruvate, 20 mM HEPES, at 37° C. with 5% CO2. For transient transfection, cells were grown in 96-well polyD-lysine coated black FLIPR plates and transfected using FuGENE HD (Promega, Madison, Wis.) as the transfection reagent according to the manufacturer's instructions. For samples treated with protease inhibitors, protease cocktail was added to cell culture one day after transfection and incubated overnight. Two days after transfection, cell culture media were removed, and cells were washed using HMS buffer plus 20 mM HEPES. Ca^2+ dye (Flura 3) diluted in HMS buffer plus 20 mM HEPES was used to incubate cells at RT for 40 minutes to allow Ca^2+ to enter cells. […] The untransfected cells were used as negative controls.

PAR2ΔSP(R36A) = biological target: T2, PAR2ΔSP(R36A) (Homo sapiens, UniProt P55085, R36A); assay: FLIPR intracellular Ca2+ mobilization, signal peptide-less PAR2 with Arg36Ala mutation; format: cell-based
T2 construct: expressed in transfected cells; host or cells: HEK293 cells with par1 and par2 knocked out, transient
T2 sequence (P55085 with tags, fused parts or gaps R36A): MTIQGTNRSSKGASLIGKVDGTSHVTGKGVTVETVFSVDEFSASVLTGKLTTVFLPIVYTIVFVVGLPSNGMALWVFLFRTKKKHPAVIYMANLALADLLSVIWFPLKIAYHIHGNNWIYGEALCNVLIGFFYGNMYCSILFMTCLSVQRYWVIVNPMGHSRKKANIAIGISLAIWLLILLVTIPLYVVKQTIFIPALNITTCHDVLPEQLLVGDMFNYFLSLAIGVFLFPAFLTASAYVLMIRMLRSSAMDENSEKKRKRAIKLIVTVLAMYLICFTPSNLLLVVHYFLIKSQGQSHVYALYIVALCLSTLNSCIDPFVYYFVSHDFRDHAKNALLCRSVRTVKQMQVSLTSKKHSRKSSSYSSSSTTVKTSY
Procedure: as §1

[5] = biological target: T3, recombinantly expressed PAR2 (Homo sapiens, UniProt P55085); assay: FLIPR intracellular Ca2+ mobilization, recombinant wild type PAR2 transiently expressed in par1/par2 knock-out HEK293; format: cell-based
T3 construct: was used to amplify the full length PAR2 cDNA coding region; expressed in transfected cells; host or cells: HEK293 cells with par1 and par2 knocked out, transient, pcDNA3.1
T3 sequence (P55085 26-397): T1 sequence (P55085 26-397 R36A) with A11R
Procedure: (§2) FLIPR-Tetra (Molecular Device, San Jose, Calif.) was used to monitor intracellular Ca^2+ mobilization in HEK293 cells, HEK293 cells with PAR1 and PAR2 knocked-out, and cells transiently transfected with various PAR2 expression constructs. Cells were grown in 96-well polyD-lysine coated black FLIPR plates (Corning) in DMEM supplemented with 10% FCS, 1 mM pyruvate, 20 mM HEPES, at 37° C. with 5% CO2. For transient transfection, cells were grown in 96-well polyD-lysine coated black FLIPR plates and transfected using FuGENE HD (Promega, Madison, Wis.) as the transfection reagent according to the manufacturer's instructions. For samples treated with protease inhibitors, protease cocktail was added to cell culture one day after transfection and incubated overnight. Two days after transfection, cell culture media were removed, and cells were washed using HMS buffer plus 20 mM HEPES. Ca^2+ dye (Flura 3) diluted in HMS buffer plus 20 mM HEPES was used to incubate cells at RT for 40 minutes to allow Ca^2+ to enter cells. Intracellular Ca^2+ mobilization stimulated by various concentrations of ligands (trypsin, or peptide ligand) was monitored by FLIPR-Tetra as described (Liu et al., Mol. Pharmacol. 88:911-25 (2015)). The untransfected cells were used as negative controls.

PAR2ΔSP = biological target: T4, PAR2ΔSP (Homo sapiens, UniProt P55085); assay: FLIPR intracellular Ca2+ mobilization, PAR2 without signal peptide in par1/par2 knock-out HEK293; format: cell-based; settings: PAR2 without its signal peptide
T4 construct: expressed in transfected cells; host or cells: HEK293 cells with par1 and par2 knocked out, transient, pcDNA3.1
T4 sequence (P55085 with tags, fused parts or gaps): T2 sequence (P55085 with tags, fused parts or gaps R36A) with A13R
Procedure: as §2, with “controls. […]” for “controls.”

PAR2ΔSPΔL = biological target: T5, PAR2ΔSPΔL (Homo sapiens, UniProt P55085); assay: FLIPR intracellular Ca2+ mobilization, PAR2 without signal peptide and tethered ligand; format: cell-based
T5 construct: expressed in transfected cells; host or cells: HEK293 cells with par1 and par2 knocked out, transient
T5 sequence (P55085 with tags, fused parts or gaps): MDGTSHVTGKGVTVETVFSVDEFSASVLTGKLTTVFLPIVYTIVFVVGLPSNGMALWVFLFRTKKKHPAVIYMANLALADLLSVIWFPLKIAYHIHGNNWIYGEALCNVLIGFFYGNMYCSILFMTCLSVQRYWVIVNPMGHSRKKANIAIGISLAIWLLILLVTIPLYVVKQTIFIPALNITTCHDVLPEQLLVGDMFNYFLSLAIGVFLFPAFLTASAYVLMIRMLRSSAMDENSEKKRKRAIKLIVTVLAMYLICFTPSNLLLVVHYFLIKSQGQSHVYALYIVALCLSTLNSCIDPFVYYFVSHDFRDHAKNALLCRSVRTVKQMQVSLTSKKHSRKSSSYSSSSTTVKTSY
Procedure: as §1

[6] = biological target: T6, endogenously expressed PAR2 in HEK293 cells (Homo sapiens, UniProt P55085); assay: FLIPR intracellular Ca2+ mobilization, wild type HEK293 cells; format: cell-based; settings: endogenous PAR2, HEK293 cells
T6 construct: the endogenously expressed PAR2 in HEK293 cells; endogenous in cells; host or cells: wild type HEK293 cells
T6 sequence (P55085 26-397): T1 sequence (P55085 26-397 R36A) with A11R
Procedure: as §2

[7] = biological target: T7, PAR2 with the signal peptide deleted (PAR2ΔSP) (human, UniProt P55085 37-397); assay: cell-based or functional assay
T7 sequence: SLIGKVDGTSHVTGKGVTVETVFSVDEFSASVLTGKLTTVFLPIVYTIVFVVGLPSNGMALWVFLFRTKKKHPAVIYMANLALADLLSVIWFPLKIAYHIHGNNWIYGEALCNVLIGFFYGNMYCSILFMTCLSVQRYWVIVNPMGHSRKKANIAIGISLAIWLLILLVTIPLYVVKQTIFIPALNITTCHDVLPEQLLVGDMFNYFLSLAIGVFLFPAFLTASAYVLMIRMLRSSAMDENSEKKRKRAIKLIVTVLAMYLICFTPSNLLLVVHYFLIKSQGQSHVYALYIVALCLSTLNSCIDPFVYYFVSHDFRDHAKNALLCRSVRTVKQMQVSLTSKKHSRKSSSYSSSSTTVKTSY

[8] = biological target: T8, PAR2 endogenously expressed in HEK293 cells (human, UniProt P55085 37-397); assay: cell-based or functional assay
T8 sequence (looked up): T7 sequence

[9] = biological target: T9, Human PAR2 wild type, recombinantly expressed in HEK293 cells with par1 and par2 knocked-out (human, UniProt P55085 37-397); assay: cell-based or functional assay
T9 sequence: T7 sequence

## Trypsin (sequencing grade) (enzyme)
[1]
  EC50, FLIPR intracellular Ca2+ mobilization: 10 nM
[2]
  EC50, FLIPR intracellular Ca2+ mobilization: 1.5 nM
[3]
  EC50, FLIPR intracellular Ca2+ mobilization: 50 nM

## thrombin
[4]
  response of knock-out cells to ligand: lack of response

## trypsin
[4]
  response of knock-out cells to ligand: lack of response
PAR2(R36A)
  receptor response to ligand stimulation in FLIPR assay: very poorly
PAR2ΔSP(R36A)
  receptor response to ligand stimulation in FLIPR assay: blocked
[5]
  EC50: 1.5 nM
PAR2ΔSP
  EC50: 50 nM
PAR2ΔSPΔL
  receptor activation in FLIPR assay: not activated
[6]
  EC50: 10 nM

## SLIGKV [PAR2 agonist peptide ligand, SLIGKV]
[7]
  EC50, FLIPR intracellular Ca2+ mobilization: 5.8 µM
  EC50, FLIPR intracellular Ca2+ mobilization, cells treated with protease inhibitor cocktail: 0.7 µM
[8]
  EC50, FLIPR intracellular Ca2+ mobilization: 1.5 µM
[9]
  EC50, FLIPR intracellular Ca2+ mobilization: 50 nM
